The test system of one data set is heart. The experiment in a line: Investigative rat toxicology study (heart histopathology). The class given is in vivo. As for the experimental part:
Rats were intratracheally administrated with compound 2 at 150µg/kg and terminated 24 hours after dosing. Rats in the repeated dose groups received compound 2 at dose level of 1 or 30µg/kg for 4 consecutive days and were terminated 24 hours after the last dose.
The animals were sacrificed by exsanguinations from the common carotid artery under isoflurane anesthesia. The external features were inspected and body weights recorded. The lung together with lower part of the trachea was excised from the thoracic cavity, weighed, and inflated with Formalin via the trachea. Other core organs (heart, kidneys, liver and spleen) were also macroscopically examined, weighed and fixed in buffered Formalin. The collected organs were trimmed and processed to paraffin blocks, sectioned (4µm) and stained with Hematoxylin Eosin (HE) for microscopic examination. Additional heart sections from each animal were collected for immunohistochemistry of Troponin T (see below) and for Masson's Trichrome stain.
The IHC was performed by using Ventanan Discovery XT automated slide processing system, according to the manufacturer’s instructions. In brief, after the antigen retrieval process (Std CC1), the Troponin T antibody (Thermo Scientific, MS-295-P1 diluted 1:50 in Antibody Diluent) was applied on the sections for 60 minutes, followed by incubation with rabbit monoclonal anti-mouse (Epitomics catalog no 3021-1) for 60 minutes and a polymer OmniMap-anti-rabbit HRP Multimer for 16 minutes. The reaction was visualized by using ChromoMap DAB kit. The slides were dehydrated in rising concentration of ethanol, cleared in xylene in an Automatic slide strainer (Sakura, US) and mounted manually with Mountex (00842, Histolab Products AB, Sweden).

Another data set addresses A2a (Homo sapiens, UniProt P29274). In words: Selectivity panel of 98 targets in binding assays (Ricerca): A2a. Also on record: Ricerca (contract panel). The note with it: 10 μmol/L of compound; data on AstraZeneca file. As for the experimental part:
The medicinal chemistry synthetic optimization focused on the position C2 and N6 (Fig.2) with the aim to discover a compound with high A2a potency, high selectivity, low lipophilicity (logD), and high solubility. […] Selectivity of compound 2 was tested across 98 targets in binding assays (www.ricerca.com). The only identified significant hits (i.e., >50% effect at 10 μmol/L of compound 2) were A2a (∼100%) and A3 (∼84%) data on AstraZeneca file.

The target of another data set is T1, adenosine A1 receptor (Homo sapiens, UniProt P30542).
T1 construct: purchased Perkin Elmer ES-010-M400UA
T1 sequence (P30542 1-326): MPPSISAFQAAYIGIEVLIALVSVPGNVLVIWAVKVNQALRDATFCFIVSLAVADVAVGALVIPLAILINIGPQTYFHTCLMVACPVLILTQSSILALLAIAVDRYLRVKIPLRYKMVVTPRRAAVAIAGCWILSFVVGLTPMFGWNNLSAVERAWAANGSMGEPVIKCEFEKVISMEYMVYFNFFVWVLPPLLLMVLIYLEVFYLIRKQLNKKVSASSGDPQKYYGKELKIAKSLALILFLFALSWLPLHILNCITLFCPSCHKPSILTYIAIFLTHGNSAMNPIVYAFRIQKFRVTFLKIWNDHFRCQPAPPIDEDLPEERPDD
The experiment in a line: Human A1 receptor pharmacology: GTPγ35[S] assay on membranes. The class given is biochemical. The settings on record: average (SD). As for the experimental part:
• Human A2a and A2b receptor pharmacology: Chinese hamster ovary CHO-K1 cells stably expressing human A2a and A2b receptors were used to determine substances agonistic potency and intrinsic activity. […] The signal corresponding to adenosine at 100 μmol/L was used to define 100% intrinsic activity. • Human A3 receptor pharmacology: A3 receptor Gi coupling was measured by GTPγ ^35[S] filter assay at serial dilutions of compound using membranes from Perkin-Elmer. The signal corresponding to the maximal response of NECA at 100 μmol/L was set to 100% intrinsic activity. • Lipopolysaccharide (LPS)-induced TNFα production in primary human peripheral blood mononuclear cells (hTNFα PBMC) and rat mononuclears (rTNFα splenocytes): Human PBMC and rat mononuclear spleen cells were incubated with serial dilutions of compound and stimulated with LPS.
The A1 receptor Gi coupling was measured by a scintillation proximity (SPA) GTPγ ^35[S] assay. Membranes (12.5μg/ml final concentration) were incubated with substances in serial dilutions (50mM Hepes, pH 7.4, 1mM MgCl2, 100mM NaCl, 0.01% BSA, 50μg/ml saponin and 2.5μM GDP) including 1mg/ml Scintillation Beads (Wheat Germ Agglutinin PVT SPA, Perkin Elmer - Rpnq0001), 0.3nM of GTPγ ^35[S] (Perkin Elmer - NEG030H) and counts were read after 16h incubation at 4 °C. The signal corresponding to adenosine at 100μM was used to define 100% efficacy.

For data set [1], the system named is mean arterial blood pressure and heart rate. In words: Swivel study: four-step i.v. infusion in conscious rats, PK-PD of MAP and HR. The class given is in vivo, rat. Also on record: Emax,MAP (maximum compound 2-induced decrease in MAP) / Emax,HR (maximum compound 2-induced increase in HR): unit not given here. The settings on record: for EC50: rat plasma concentration. As for the experimental part: The relationship between plasma concentrations of compound 2 and mean arterial pressure (MAP) and HR, respectively, were modeled using data generated in the swivel study, including data from start of first infusion up to 2 h after end of last infusion (Dose 1–4, equivalent to 1.9, 11, 67 and 410 μg/kg per min for 15 min at each step). The baseline value, calculated as average of measurements during the 60 min baseline recording period was used as the predose value. Temporal differences between effect measurements and blood sampling for plasma analysis were accounted for by fitting a standard two-compartment PK model to the time-concentration profile for each individual animal, and subsequently using the individual parameter estimates to simulate compound 2 plasma concentrations at the times of effect measurements. Phoenix® WinNonlin® Version 6.2.1 (Certara, L.P., Princetown, NJ) was used for modelling.
A 4-step intravenous infusion protocol was performed during continuous recording of the arterial blood pressure signal and intermittent blood sampling in seven conscious rats the day after surgical implantation of an arterial line in the abdominal aorta via the caudal artery and a venous line in the jugular vein. After a baseline recording of 60 minutes, compound 2 was given in 15-minute constant infusion steps of 1.9, 11, 67 and 410μg/kg/min (0.034-0.2ml/kg/min) followed by a washout period of 120 minutes. One rat was monitored under the same conditions as a time-matched control. Blood samples for analysis of drug exposure were taken at the end of each dose step and intermittently during the washout.

Where [2] appears, read: calculated from PK-PD relationships.
Where [3] appears, read: conscious rats, 2 h after end of four-step i.v. infusion.

“And” between values parts separate entries of the source, which are not always exact repeats. Equal values may be shown once. “Also recorded” adds a separate entry of the source. Read-outs that look alike come from different tables or passages of the source.

Sequence of A2a (P29274 whole entry): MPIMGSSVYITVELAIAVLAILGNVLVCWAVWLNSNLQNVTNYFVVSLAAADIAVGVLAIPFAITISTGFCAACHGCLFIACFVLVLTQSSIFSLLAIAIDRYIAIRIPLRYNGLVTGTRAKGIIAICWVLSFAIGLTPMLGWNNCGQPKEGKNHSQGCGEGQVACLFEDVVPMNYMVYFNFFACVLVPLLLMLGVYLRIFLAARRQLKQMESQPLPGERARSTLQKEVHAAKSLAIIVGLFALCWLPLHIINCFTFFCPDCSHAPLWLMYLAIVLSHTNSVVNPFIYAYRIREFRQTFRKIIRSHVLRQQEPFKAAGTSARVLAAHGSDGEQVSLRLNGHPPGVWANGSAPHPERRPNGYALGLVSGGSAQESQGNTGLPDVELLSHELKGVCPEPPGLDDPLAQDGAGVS

With `CCNC(=O)[C@H]1O[C@@H](n2cnc3c(NC(CC)CC)nc(NCCNC(=O)Nc4cc[n+](C)cc4)nc32)[C@H](O)[C@@H]1O` [Compound 2, (2S,3S,4R,5R)-N-ethyl-5-[6-(1-ethylpropylamino)-2-[2-[(1-methylpyridin-1-ium-4-yl)carbamoylamino]ethylamino]purin-9-yl]-3,4-dihydroxy-tetrahydrofuran-2-carboxamide], the Heart changes result in the data set on heart (1 μg/kg i.t. for 4 days) was “No changes were observed”. Besides, the “Multifocal scar tissue (dense granulation) in heart” value in the data set on heart (30 μg/kg i.t. for 4 days) is reported as “three out of five; also recorded: multifocal dense scar tissue in the heart but no acute myocardial necrosis”. Moreover, the “Dose level with histopathological heart lesions relative to efficacious dose in inflammatory rat lung model” value with heart (30 μg/kg vs 10 μg/kg i.t.) is “threefold”. The “Heart weight relative to body weight” value with heart (single dose of 150 μg/kg or repeated doses of 30 μg/kg) was “slightly increased”. The Multifocal myocardial necrosis entry with heart (single i.t. dose 150 μg/kg, one day after dose) was “four of five; also recorded: caused multifocal myocardial necrosis”. Moreover, the “Effect in binding assay, A2a” value at A2a was roughly 100%. For the same molecule, the EC50 on adenosine A1 receptor was 2100 nM; in data set [1] (Rattus norvegicus, iv, sigmoid Emax model, mean ± SD, read-out: EC50,MAP (plasma concentration that induces half the maximum MAP decrease)), 0.5 nM; in data set [1] (Rattus norvegicus, iv, simple Emax model on mean data, read-out: EC50,HR), 0.18 nM; in data set [1] (sigmoid Emax model, mean ± SD, read-out: EC50,MAP (plasma concentration that induces half the maximum MAP decrease)), 0.52 ± 0.16 nM. Further, in data set [1] (0.3 nmol/L vs 2-4 nmol/L at 10 μg/kg i.t.), the “Concentration for 10% MAP decrease relative to plasma concentration at effective dose (fold lower)” value is given as 10 fold. For the same molecule, the “kE0 (first-order rate constant, effect compartment)” value in data set [1] (PK-PD model of MAP, mean ± SD) came out at 0.058 ± 0.039 min⁻¹. Moreover, in data set [1] (setting [2]), the “Plasma concentration that produces 10% increase from baseline HR” value was 0.04 nM. Besides, the “Total plasma concentration that causes 10% decrease from baseline MAP” value in data set [1] (setting [2]) is 0.3 ± 0.2 nmol/L and 0.3 nmol/L. Further, the “Blood pressure 2 h postdosing” value in data set [1] (setting [3]) is 100 ± 7 mmHg. For the same molecule, the “Heart rate 2 h postdosing” value in data set [1] (setting [3]) is reported as 489 ± 41 bpm. In addition, in data set [1] (conscious rats, i.v. infusion 11 μg/kg per min for 15 min, baseline 381 ± 21), the “Heart rate at dose 2” value is reported as 472 ± 33 bpm. In addition, the “Blood pressure at dose 3” value in data set [1] (conscious rats, i.v. infusion 67 μg/kg per min for 15 min, baseline 114 ± 9) was 98 ± 9 mmHg. Further, the Core body temperature entry in data set [1] (highest dose (410 μg/kg per min i.v.)) was “significant reduction”. Also, the “Emax,MAP (maximum compound 2-induced decrease in MAP)” value in data set [1] (sigmoid Emax model, mean ± SD) was 37 ± 11. Also, the “Emax,HR (maximum compound 2-induced increase in HR)” value in data set [1] (simple Emax model on mean data) is 158.

Source of the values: PMC4492750, “The discovery of a selective and potent A2a agonist with extended lung retention” (Pharmacology Research & Perspectives, 2015).
